{"source": "patent US11655232B2", "about": "(Celgene Corporation, priority 2003, dated 2023)", "key": {"[1]": {"assay": "Moisture sorption/desorption", "format": "physicochemical", "method": "Moisture sorption/desorption data were collected on a VTI SGA-100 moisture balance system. For sorption isotherms, a sorption range of 5 to 95% relative humidity (RH) and a desorption range of 95 to 5% RH in 10% RH increments was used for analysis. The sample was not dried prior to analysis. Equilibrium criteria used for analysis were less than 0.0100 weight percent change in 5 minutes with a maximum equilibration time of 3 hours if the weight criterion was not met. Data were not corrected for the initial moisture content of the samples."}, "[2]": {"settings": "pH 1.8", "quoted_text": "(§1) A solid sample of 400-450 mg was stirred in 50 mL of dissolution medium (HCl buffer, pH 1.8, with 1% sodium lauryl sulfate) using a mechanical stir rod. Aliquots were filtered using 0.2-μm nylon syringe filters and immediately diluted 1 mL→50 mL, then 5 mL→25 mL with dissolution medium in Class A glassware, a final dilution factor of 250.\n(§2) Dissolution and solubility samples solutions were analyzed by a Beckman DU 640 single-beam spectrophotometer. A 1.000-cm quartz cuvette and an analysis wavelength of 228.40 nm were utilized. The detector was zeroed with a cuvette filled with dissolution medium.\n(§3) XRPD analyses were carried out on a Shimadzu XRD-6000 X-ray powder diffractometer using Cu Kα radiation. The instrument is equipped with a fine focus X-ray tube. The tube power and amperage were set at 40 kV and 40 mA, respectively. The divergence and scattering slits were set at 1° and the receiving slit was set at 0.15 mm. Diffracted radiation was detected by a NaI scintillation detector. A theta-two theta continuous scan at 3°/min (0.4 sec/0.02° step) from 2.5 to 40°2θ was used. A silicon standard was analyzed each day to check the instrument alignment. Samples were packed in an aluminum holder with silicon insert."}, "[3]": {"assay": "Intrinsic dissolution (Woods apparatus)", "format": "physicochemical", "method": "Dissolution experiments were carried out in a VanKel VK6010-8 dissolution apparatus equipped with a VK650A heater/circulator. An intrinsic dissolution apparatus (Woods apparatus) was used. Samples were compressed at 1.5 metric tons (1000 psi) for 1 min using the Woods apparatus in a hydraulic press, giving a sample surface of 0.50 cm^2. […] The medium was degassed by vacuum filtration through a 0.22-μm nylon filter disk and maintained at 37° C. The apparatus was rotated at 50 rpm for each experiment. Aliquots were filtered immediately using 0.2-μm nylon syringe filters. In some cases, the undissolved solids were recovered and analyzed by X-ray powder diffraction (XRPD).\nDiffracted radiation was detected by a NaI scintillation detector."}, "[4]": {"assay": "Temperature/relative humidity stress storage", "format": "physicochemical"}, "[5]": {"assay": "physchem", "settings": "25 °C, pH 1.8, aqueous with cosolvent or surfactant or cyclodextrin, thermodynamic from solid", "quoted_text": "as §1, §2, §3"}, "[6]": {"assay": "Desolvation by heating", "format": "physicochemical", "settings": "about 125° C. for about five minutes"}}, "note": "Where two headings read alike, the source gives them in different places."}
{"smiles": "Nc1cccc2c1CN(C1CCC(=O)NC1=O)C2=O", "note": "(stereo not shown) [Form E, 3-(4-amino-1-oxo-1,3 dihydro-isoindol-2-yl)-piperidine-2,6-dione]", "values": [{"measurement": "weight lost from start to finish", "setting": "[1]; at 5% relative humidity after drying from 95% back down to 5%", "value": "about 0.0528 % by weight"}, {"measurement": "weight gain on moisture sorption", "setting": "[1]; from 5 to 95% relative humidity", "value": "does not exhibit a significant weight change"}, {"measurement": "Solubility", "setting": "[2]", "value": 4.7, "unit": "mg/mL"}, {"measurement": "Cumulative Amount Dissolved per Unit Area", "setting": "[3]; Experiment #1, 5 min", "value": 2.70, "unit": "mg/cm2"}, {"measurement": "Cumulative Amount Dissolved per Unit Area", "setting": "[3]; Experiment #1, 10 min", "value": 4.13, "unit": "mg/cm2"}, {"measurement": "Cumulative Amount Dissolved per Unit Area", "setting": "[3]; Experiment #1, 20 min", "value": 6.96, "unit": "mg/cm2"}, {"measurement": "Cumulative Amount Dissolved per Unit Area", "setting": "[3]; Experiment #1, 30 min", "value": 9.60, "unit": "mg/cm2"}, {"measurement": "Cumulative Amount Dissolved per Unit Area", "setting": "[3]; Experiment #1, 45 min", "value": 12.57, "unit": "mg/cm2"}, {"measurement": "Cumulative Amount Dissolved per Unit Area", "setting": "[3]; Experiment #1, 60 min", "value": 15.16, "unit": "mg/cm2"}, {"measurement": "Cumulative Amount Dissolved per Unit Area", "setting": "[3]; Experiment #1, 90 min", "value": 20.82, "unit": "mg/cm2"}, {"measurement": "Cumulative Amount Dissolved per Unit Area", "setting": "[3]; Experiment #2, 5 min", "value": 3.06, "unit": "mg/cm2"}, {"measurement": "Cumulative Amount Dissolved per Unit Area", "setting": "[3]; Experiment #2, 10 min", "value": 4.31, "unit": "mg/cm2"}, {"measurement": "Cumulative Amount Dissolved per Unit Area", "setting": "[3]; Experiment #2, 20 min", "value": 11.40, "unit": "mg/cm2"}, {"measurement": "Cumulative Amount Dissolved per Unit Area", "setting": "[3]; Experiment #2, 30 min", "value": 11.93, "unit": "mg/cm2"}, {"measurement": "Cumulative Amount Dissolved per Unit Area", "setting": "[3]; Experiment #2, 45 min", "value": 14.72, "unit": "mg/cm2"}, {"measurement": "Cumulative Amount Dissolved per Unit Area", "setting": "[3]; Experiment #2, 60 min", "value": 18.52, "unit": "mg/cm2"}, {"measurement": "Cumulative Amount Dissolved per Unit Area", "setting": "[3]; Experiment #2, 90 min", "value": 26.24, "unit": "mg/cm2"}, {"measurement": "Cumulative Amount Dissolved per Unit Area", "setting": "[3]; Experiment #2, 120 min", "value": 33.56, "unit": "mg/cm2"}, {"measurement": "Cumulative Amount Dissolved per Unit Area", "setting": "[3]; Experiment #2, 150 min", "value": 40.82, "unit": "mg/cm2"}, {"measurement": "dissolution rates (estimated)", "setting": "[3]; HCl buffer pH 1.8, 1% sodium lauryl sulfate", "value": 0.23, "unit": "mg/cm²/min"}, {"measurement": "Final Form of undissolved solids after intrinsic dissolution (XRPD)", "setting": "[3]; HCl buffer pH 1.8, 1% sodium lauryl sulfate, 37° C.", "value": "did not change"}, {"measurement": "Average Intrinsic Dissolution Rate", "setting": "[3]; average of experiments #1 and #2", "value": 0.23, "unit": "mg per cm^2 per minute"}, {"measurement": "Intrinsic Dissolution #1 (rate)", "setting": "[3]; experiment #1, 900 mL HCl buffer pH 1.8, 1% sodium lauryl sulfate, 37° C., 50 rpm", "value": 0.21, "unit": "mg per cm^2 per minute"}, {"measurement": "Intrinsic Dissolution #2 (rate)", "setting": "[3]; experiment #2, HCl buffer pH 1.8, 1% sodium lauryl sulfate, 37° C., 50 rpm", "value": 0.25, "unit": "mg per cm^2 per minute"}, {"measurement": "form after stress storage", "setting": "[4]; about 85 days, room temperature/0% RH and 40° C./93% RH", "value": "typically does not convert to a different form"}, {"measurement": "form after stress storage", "setting": "[4]; seven days at room temperature/0% RH", "value": "can convert to a new form, Form H"}, {"measurement": "Solubility", "setting": "[5]", "value": 4700, "unit": "µg/mL"}, {"measurement": "form after heating (desolvation)", "setting": "[6]", "value": "can convert to Form B"}]}
